Legend:
[1] = tested on: HUVECs; assay: BrdU incorporation assay (EC proliferation); type: cell-based, human; conditions: transfected 48 hrs (mimic 25 nM, anti-miR 75 mM)
Description: (§1) Lipofectamine RNAiMAX (Thermo Fisher Scientific) was used to transfect HUVECs with miR-148b mimic, anti-miR-148b and mimic or anti-miR control (25 nM and […], respectively final concentration) or with siRNA targeting SMAD2 (20 nM final concentration), according to the manufacturer's instructions. jetPEI-HUVECs (Polyplus) was used to transfect HUVECs with DNA plasmids. The following functional assays were performed: BrdU incorporation assay using Cell Proliferation colorimetric assay (Roche); Matrigel assay with HUVECs was performed as previously described using BD Matrigel Basement Membrane Matrix (BD Biosciences)^53.

[2] = tested on: HUVECs; assay: ECIS migration assay; type: cell-based, human; conditions: transfected 48 hrs (mimic 25 nM, anti-miR 75 mM)
Description: Confluent HUVECs were transfected with controls or miR-148b mimic or anti-miR-148b and, plated on the ECIS chip array (8W1E or 8W10E). The migration speed was calculated in μm/h, capacitance of the plasma membrane is Cm (μF/cm^2) as reported in Giaever, I, and Keese, C R (1991)^29.

[3] = tested on: HUVECs; assay: Matrigel assay (tube formation); type: cell-based, human; conditions: transfected 48 hrs (mimic 25 nM, anti-miR 75 mM)
Description: as §1

[4] = tested on: skin wounds; assay: Mouse model of skin wound healing (full-thickness excisional wounds); type: in vivo; conditions: for vessel density (CD31 positive vessels) / wound perfusion (laser Doppler): topical 1 μg/wound; for wound closure / expression of targets TGFB2 and SMAD2 in wound: topical 1 μg/wound every second day; for wound closure: 7 days; for wound perfusion (laser Doppler): 5 days post wounds
Description: All experiments involving mice were performed in accordance with the guidance and the operation of Animals (Scientific Procedures) Act 1986 and prior approval of the UK Home Office and the University of Edinburgh ethic committee. Skin wound healing protocol has been performed as described before^54-56. CD-1 female mice (7-9-week-old) (n=8 per group) were randomly assigned a treatment group and anaesthetized with isofluorane. Two full-thickness excisional wounds were made to the shaved dorsal skin. Full-thickness excisional wounds were made by picking up a fold of skin and using a sterile, disposable 5-mm biopsy punch (Kai Industries), resulting in generation of one wound on each side of the midline. Control oligonucleotides (scramble sequence), miR-148b mimic, Cy3-labeled miR-148b mimic or anti-miR-148b or SMAD2 siRNA (1 μg/wound) were delivered topically by pipette into the wound cavity (10 μl in a vehicle of 30% Pluronic F-127 gel [is liquid at 4° C. but solidifies at body temperature]; Sigma Aldrich). Mimics were initially delivered after 3 days, whereas anti-miR and siRNA were delivered immediately after wounding. The treatment was performed every second day for 7 days. Wounds were photographed using an Olympus camera on days 0, 2, 4, 6, and 7 after wounding. Wound areas were calculated as previously described^54, 55. To this aim, two perpendicular diameters of the wound were measured by using a Vernier caliper and wound area was calculated using a standard formula for the area of an ellipse (semi-major diameter X semi-minor diameter X Pi). The superficial blood flow of the wounds was sequentially analysed by colour laser Doppler (Colour laser Doppler, Moor, UK), and the ratio of blood flow between the mimic or anti-miR or siRNA treated and the control treated wounds was calculated. Wound size and Doppler analysis was performed in blinded fashion.
Wounds were harvested, prepared, and analysed essentially as previously described^54-56. At days 5 or 7 post-wounding, wounds were harvested and fixed in 10% buffered formalin (16 h at 4° C., Sigma) for embedding in paraffin. Sectioning was done through the wound beyond the midpoint and wound centres as identified by staining with Haematoxylin and Eosin (Sigma). Sections were deparaffinised, rehydrated and stained with rat anti-mouse polyclonal CD31 (Abcam, ab28364, 1:50), α-SMA (Sigma, A2547, 1:100) rabbit anti-mouse FSP-1 (Abcam, ab41532, 1:50), and SLUG (Abcam, […], 1:200); all antibodies overnight at 4° C.
Zeiss LSM 780 Confocal Microscope (Zeiss). Vascular density in wounds was counted after staining for CD31 and α-SMA. Ten fields per section/animal (n=8 animal; 400× magnification) were randomly examined and averaged to analyse the number of CD31-positive blood vessels in the wound edges. Images collection was performed manually. Image analysis was performed using Image J software as previously reported in^54. Vascular density is expressed per square millimetre. EndMT of ECs was assessed by FSP-1 and SLUG staining combined with CD31 staining. CD31-FSP-1 and CD31-SLUG double positive vessels are expressed as percentage of positive vessels. For analysis of fibrosis: the slides of the staining were examined and photomicrographed in a blinded fashion using a light microscope (Axioscope 2; Zeiss). Six images per slide were captured at 400× magnification for both histological staining. The colour deconvolution ImageJ software was used to evaluate the percentage of red staining which indicate the presence of collagen fibres in the tissue. The morphometric analysis corresponding to the red colours was measured as the percentage of total pixels in each image, using the Threshold (Image J software).

[5] = tested on: 3′UTR of TGFB2; assay: Luciferase reporter assay, wild-type 3′UTR of TGFB2; type: cell-based, human; conditions: 48 h post-co-transfection, HEK293T cells or HUVECs; mutation of the binding sites restored it
Description: Luciferase assay has been performed as previously described^53. TGFB2 3′-UTR and SMAD2 3′-UTR vectors were cloned in pMIR-Reporter (Life Technology). Primers are used for the cloning are: TGFβ2 3′UTR: Forward 5′-[…]-3′ (SEQ ID NO: 7), Reverse 5′-[…]-3′ (SEQ ID NO: 8); SMAD2 3′UTR: Forward 5′-[…]-3′ (SEQ ID NO: 9), Reverse 5′-[…]-3′ (SEQ ID NO: 10). Primers for 3′UTR mutation: TGFB2: Forward […] (SEQ ID NO: 11) and Reverse […] (SEQ ID NO: 12); SMAD2 Forward […] (SEQ ID NO: 13) and Reverse […] (SEQ ID NO: 14). Luciferase constructs were transfected into HEK293T cells or HUVECs together with miR-148b mimics or p-SV-beta-Gal control vector. Cells were cultured for 48 h and assayed with the Luciferase and β-Galactosidase Reporter Assay Systems (Promega). Luciferase values were normalized to protein concentration and β-galactosidase activity.

Row | Molecule | proliferation of HUVECs (BrdU incorporation) [1] | EC migration (migration speed) [2] | tube formation / tubulogenesis in Matrigel assay (total tubules length) [3] | collagen deposition (PicroSirius Red) ([4]; day 7 after wounding) | CD31-FSP-1 or CD31-SLUG double-positive vessels in wound edge ([4]; delivered immediately after wounding and every two days, day 7) | skin vessels that demonstrated mesenchymal transition (EndMT) ([4]; following delivery to the wounds) | vessel density (CD31 positive vessels) [4] | wound closure [4] | expression of targets TGFB2 and SMAD2 in wound ([4]; day 7 after wounding) | wound perfusion (laser Doppler) [4] | total number of FSP-1 positive cells in wounds ([4]; vs control oligonucleotide-treated wounds, day 7) | luciferase activity, 3′-UTR-TGFB2 reporter [5] | miR-148b expression in wound ([4]; topical, starting 3 days after wounding, day 7)
1 | anti-miR-148b: miR-148b inhibitor oligonucleotide; suitable inhibitor: hsa-miR-148b-3p miRCURY LNA inhibitor, CAAAGTTCTGTGATGCACTG (SEQ ID NO: 6) (commercial miRCURY LNA inhibitor, LNA positions not given here) | decreased | did not cause a change | did not cause a change | did not detect any increase | comprised of CD31-FSP-1 or CD31-SLUG double-positive vessels | around 20% | without effecting | markedly attenuated | increased | without effecting | increase | – | –
2 | miR-148b mimic: miR-148b mimic oligonucleotide; in a particular embodiment has SEQ ID NO: 1, the human precursor miR-148b sequence (nucleic acid, listed as RNA, chemistry not given here) CAAGCACGAUUAGCAUUUGAGGUGAAGUUCUGUUAUACACUCAGGCUGUGGCUCUCUGAAAGUCAGUGCAUCACAGAACUUUGUCUCGAAAGCUUUCUA | significantly increased | significantly elevated | significantly elevated | – | – | – | significant increase | accelerated | decreasing | significant increase | – | decreased luciferase activity | increased

Reference: patent publication US20220193111A1, “Method of Treatment” (The University Court of the University of Edinburgh, priority 2018, published 2022)
